The source of these data is US20210070748A1, “INHIBITORS OF BRUTONS TYROSINE KINASE” (Pharmacyclics LLC, priority 2015, published 2021).

The structures appear in SMILES notation. pIC50: −log10 of the molar value. Where only a bound is given, the exact number is not on record here.

What all share (type): biochemical
One experiment has as its target EGFR (Homo sapiens, UniProt P00533). As to the kind of experiment: Inhibition of a panel of kinases, in vitro HotSpot kinase assay: EGFR. Particulars: D-compounds panel data; 1 μM ATP. As for the experimental part:
(§1) The degree of inhibition of a panel of kinases is determined using the in vitro HotSpot kinase assay (purified enzymes, ^33P-ATP, an appropriate substrate and 1 μM ATP).

The next experiment addresses T1, JAK3 (Homo sapiens, UniProt P52333).
T1 sequence (P52333 1-1124): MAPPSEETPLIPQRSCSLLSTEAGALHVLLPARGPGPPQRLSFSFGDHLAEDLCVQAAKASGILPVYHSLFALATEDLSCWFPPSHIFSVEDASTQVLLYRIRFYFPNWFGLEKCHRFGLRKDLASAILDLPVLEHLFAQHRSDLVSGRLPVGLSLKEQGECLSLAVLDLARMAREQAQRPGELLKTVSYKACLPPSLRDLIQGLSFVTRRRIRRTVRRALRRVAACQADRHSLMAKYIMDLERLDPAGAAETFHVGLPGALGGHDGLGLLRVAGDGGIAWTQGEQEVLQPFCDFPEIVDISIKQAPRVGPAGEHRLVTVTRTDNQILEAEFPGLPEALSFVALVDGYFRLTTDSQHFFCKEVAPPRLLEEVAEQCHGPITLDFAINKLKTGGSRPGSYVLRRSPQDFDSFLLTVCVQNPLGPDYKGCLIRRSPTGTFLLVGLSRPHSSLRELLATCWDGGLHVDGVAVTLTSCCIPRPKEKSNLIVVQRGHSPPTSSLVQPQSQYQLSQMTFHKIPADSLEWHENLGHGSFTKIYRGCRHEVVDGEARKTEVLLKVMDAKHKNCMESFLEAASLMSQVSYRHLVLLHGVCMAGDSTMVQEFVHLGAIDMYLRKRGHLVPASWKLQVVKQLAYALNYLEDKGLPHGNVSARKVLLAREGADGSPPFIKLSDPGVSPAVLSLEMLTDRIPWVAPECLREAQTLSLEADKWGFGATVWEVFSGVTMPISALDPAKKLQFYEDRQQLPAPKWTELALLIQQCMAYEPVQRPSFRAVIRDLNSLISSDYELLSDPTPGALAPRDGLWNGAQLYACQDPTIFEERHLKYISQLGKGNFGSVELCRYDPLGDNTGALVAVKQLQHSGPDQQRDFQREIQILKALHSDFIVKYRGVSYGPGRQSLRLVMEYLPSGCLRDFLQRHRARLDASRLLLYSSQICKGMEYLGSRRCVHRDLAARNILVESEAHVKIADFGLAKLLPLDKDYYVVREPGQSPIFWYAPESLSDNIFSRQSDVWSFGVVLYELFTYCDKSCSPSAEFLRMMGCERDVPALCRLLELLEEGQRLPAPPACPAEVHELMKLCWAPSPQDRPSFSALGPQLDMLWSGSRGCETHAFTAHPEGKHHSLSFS
In words: Inhibition of a panel of kinases, in vitro HotSpot kinase assay: JAK3. Particulars: D-compounds panel data; 1 μM ATP; read-out: IC50 JAK3.

The target of another experiment is SRC (Homo sapiens, UniProt P12931). As to the kind of experiment: Inhibition of a panel of kinases, in vitro HotSpot kinase assay: SRC. The conditions noted are these: D-compounds panel data; 1 μM ATP. As for the experimental part:
as §1

Another experiment addresses T2, BTK-WT (Homo sapiens, UniProt Q06187).
T2 construct: purified from insect cells as a full-length construct containing an N-terminal 6X-His tag; His6 (N); made in house; host or cells: insect cells (baculovirus Sf21 in Method B)
As to the kind of experiment: Btk in vitro inhibitory activity (one of Method A TR-FRET, Method B electrophoretic mobility shift, Method C radiometric filter binding). Particulars: D-compounds panel data; read-out: IC50 BTK-WT.

Chain of EGFR (P00533 25-1210): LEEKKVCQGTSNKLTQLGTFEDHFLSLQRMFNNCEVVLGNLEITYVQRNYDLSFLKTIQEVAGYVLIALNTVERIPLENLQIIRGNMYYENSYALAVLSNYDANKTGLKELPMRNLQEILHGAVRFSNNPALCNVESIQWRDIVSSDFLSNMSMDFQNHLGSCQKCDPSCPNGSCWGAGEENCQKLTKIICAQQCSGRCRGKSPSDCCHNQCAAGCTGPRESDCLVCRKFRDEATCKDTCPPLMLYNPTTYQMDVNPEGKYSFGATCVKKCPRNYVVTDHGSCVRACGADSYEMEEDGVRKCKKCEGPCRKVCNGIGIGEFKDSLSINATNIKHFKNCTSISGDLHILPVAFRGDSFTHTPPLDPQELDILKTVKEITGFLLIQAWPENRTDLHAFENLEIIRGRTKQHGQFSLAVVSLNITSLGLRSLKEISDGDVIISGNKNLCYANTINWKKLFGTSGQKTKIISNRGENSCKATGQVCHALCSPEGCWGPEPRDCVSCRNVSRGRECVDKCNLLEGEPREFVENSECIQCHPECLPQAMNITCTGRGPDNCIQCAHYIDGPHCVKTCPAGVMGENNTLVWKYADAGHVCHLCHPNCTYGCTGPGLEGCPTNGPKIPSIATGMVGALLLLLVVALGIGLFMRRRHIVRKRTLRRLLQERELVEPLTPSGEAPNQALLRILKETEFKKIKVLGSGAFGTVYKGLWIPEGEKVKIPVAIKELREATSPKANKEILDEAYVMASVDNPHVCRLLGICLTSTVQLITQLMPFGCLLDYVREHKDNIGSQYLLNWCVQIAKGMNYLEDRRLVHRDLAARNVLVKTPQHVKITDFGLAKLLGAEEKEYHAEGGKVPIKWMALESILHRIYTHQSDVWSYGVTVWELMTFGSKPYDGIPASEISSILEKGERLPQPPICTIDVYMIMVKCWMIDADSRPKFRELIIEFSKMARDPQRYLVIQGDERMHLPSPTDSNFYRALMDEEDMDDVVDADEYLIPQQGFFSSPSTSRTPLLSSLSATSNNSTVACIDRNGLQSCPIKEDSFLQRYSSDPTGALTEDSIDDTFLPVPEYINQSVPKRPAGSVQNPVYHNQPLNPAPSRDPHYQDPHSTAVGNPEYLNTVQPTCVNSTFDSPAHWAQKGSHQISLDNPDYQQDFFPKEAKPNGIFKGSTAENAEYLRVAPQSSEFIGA
T2 sequence (Q06187 whole entry): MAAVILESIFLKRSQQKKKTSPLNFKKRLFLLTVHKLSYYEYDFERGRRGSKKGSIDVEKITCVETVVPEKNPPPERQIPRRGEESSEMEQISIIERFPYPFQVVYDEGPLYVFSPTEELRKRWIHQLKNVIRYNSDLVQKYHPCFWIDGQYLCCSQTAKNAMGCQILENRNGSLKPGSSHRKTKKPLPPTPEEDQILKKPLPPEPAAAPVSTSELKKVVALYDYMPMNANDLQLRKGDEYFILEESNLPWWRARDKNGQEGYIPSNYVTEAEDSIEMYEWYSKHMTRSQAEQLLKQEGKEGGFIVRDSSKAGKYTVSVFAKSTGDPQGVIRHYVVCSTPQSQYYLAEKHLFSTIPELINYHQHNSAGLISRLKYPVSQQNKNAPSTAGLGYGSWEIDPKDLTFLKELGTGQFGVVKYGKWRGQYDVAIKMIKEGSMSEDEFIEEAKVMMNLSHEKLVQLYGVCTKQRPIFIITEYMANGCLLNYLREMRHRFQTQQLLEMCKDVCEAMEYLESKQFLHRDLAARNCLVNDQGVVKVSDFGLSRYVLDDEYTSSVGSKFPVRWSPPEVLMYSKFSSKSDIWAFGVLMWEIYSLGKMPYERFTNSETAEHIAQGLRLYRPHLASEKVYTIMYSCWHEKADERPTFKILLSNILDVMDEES
Chain of SRC (P12931 whole entry): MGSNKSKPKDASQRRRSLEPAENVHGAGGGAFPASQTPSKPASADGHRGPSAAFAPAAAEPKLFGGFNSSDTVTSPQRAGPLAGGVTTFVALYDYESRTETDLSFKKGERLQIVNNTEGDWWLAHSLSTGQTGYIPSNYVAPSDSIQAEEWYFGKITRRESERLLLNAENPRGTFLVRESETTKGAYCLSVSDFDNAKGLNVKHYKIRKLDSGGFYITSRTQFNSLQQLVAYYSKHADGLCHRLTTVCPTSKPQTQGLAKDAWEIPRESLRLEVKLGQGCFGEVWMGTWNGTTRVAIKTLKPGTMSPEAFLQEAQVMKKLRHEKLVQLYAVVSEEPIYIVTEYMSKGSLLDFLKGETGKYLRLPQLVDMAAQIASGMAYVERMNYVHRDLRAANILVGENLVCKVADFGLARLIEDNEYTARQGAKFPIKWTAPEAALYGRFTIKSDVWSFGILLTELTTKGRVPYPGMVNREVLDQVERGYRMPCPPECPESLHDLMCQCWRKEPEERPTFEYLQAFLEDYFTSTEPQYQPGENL

For the compound `CC(=O)NC(C)(C)c1ccc(C(=O)N[C@@H]2CCCN(c3cnc(C(N)=O)c(Nc4cnn(C)c4)n3)[C@@H]2C)cc1` [Example D-107, 5-[(2R,3R)-3-[4-(2-acetamidopropan-2-yl)benzamido]-2-methylpiperidin-1-yl]-3-[(1-methyl-1H-pyrazol-4-yl)amino]pyrazine-2-carboxamide], the negative logarithm of the IC50 (pIC50) against EGFR is 5.00 to 6.00; on JAK3, 5.00 to 6.00; against SRC, 7.00 to 8.00; at BTK-WT, at least 8.00.
Take `C[C@@H]1[C@H](NC(=O)c2ccc(C3CC3)cc2)CCCN1c1cnc(C(N)=O)c(Nc2ccc(OC3C[C@H]4CC[C@@H](C3)N4C)cc2)n1` (stereo partly drawn) [Example D-106, 5-[(2R,3R)-3-(4-cyclopropylbenzamido)-2-methylpiperidin-1-yl]-3-[(4-{[(1R,5S)-8-methyl-8-azabicyclo[3.2.1]octan-3-yl]oxy}phenyl)amino]pyrazine-2-carboxamide]: the negative logarithm of the IC50 (pIC50) on EGFR was 6.00 to 7.00; on JAK3, 6.00 to 7.00; on SRC, 7.00 to 8.00; on BTK-WT, at least 8.00.
As for `C[C@H]1CC[C@@H](NC(=O)c2ccc(C3CC3)cc2)CN1c1cnc(C(N)=O)c(Nc2cnn(C)c2)n1` [Example D-142, 5-[(2S,5R)-5-(4-cyclopropylbenzamido)-2-methylpiperidin-1-yl]-3-[(1-methyl-1H-pyrazol-4-yl)amino]pyrazine-2-carboxamide], the pIC50 at EGFR is 5.00 to 6.00; on JAK3, 6.00 to 7.00; at SRC, 7.00 to 8.00; at BTK-WT, at least 8.00.
In the same order, the values of `CN(C)c1ccc2c(c1)CCN([C@@H]1CCCN(c3cnc(C(N)=O)c(Nc4cnn(C)c4)n3)C1)C2=O` [Example D-156, 5-[(3R)-3-[6-(dimethylamino)-1-oxo-1,2,3,4-tetrahydroisoquinolin-2-yl]piperidin-1-yl]-3-[(1-methyl-1H-pyrazol-4-yl)amino]pyrazine-2-carboxamide] are below 5.00, 5.00 to 6.00, 6.00 to 7.00 and at least 8.00.
On the same counts, the results for `Cc1cccc(-c2cnc(C3CCCN(c4cnc(C(N)=O)c(Nc5cnn(C)c5)n4)C3)[nH]2)c1` [Example D-148, 3-[(1-methyl-1H-pyrazol-4-yl)amino]-5-{3-[5-(3-methylphenyl)-1H-imidazol-2-yl]piperidin-1-yl}pyrazine-2-carboxamide] are 5.00 to 6.00, 5.00 to 6.00, 6.00 to 7.00 and 7.00 to 8.00.
On the same counts, the results for `C[C@@H]1[C@H](NC(=O)N(C)C)CCCN1c1cnc(C(N)=O)c(Nc2ccc(CN3CCN(C)CC3)cc2)c1` [Example D-120, 5-[(2R,3R)-3-[(dimethylcarbamoyl)amino]-2-methylpiperidin-1-yl]-3-({4-[(4-methylpiperazin-1-yl)methyl]phenyl}amino)pyridine-2-carboxamide] are below 5.00, 5.00 to 6.00, 5.00 to 6.00 and 6.00 to 7.00.
For `C[C@@H]1CC[C@H](NC(=O)c2ccc(C3CC3)cc2)CN1c1cnc(C(N)=O)c(Nc2cnn(C)c2)n1` [Example D-145, 5-[(2R,5S)-5-(4-cyclopropylbenzamido)-2-methylpiperidin-1-yl]-3-[(1-methyl-1H-pyrazol-4-yl)amino]pyrazine-2-carboxamide], the pIC50 against EGFR is 5.00 to 6.00; at JAK3, below 5.00; on SRC, 5.00 to 6.00; at BTK-WT, 7.00 to 8.00.
Consider `C[C@@H]1[C@H](NC(=O)c2ccc(C3CC3)cc2F)CCCN1c1cnc(C(N)=O)c(Nc2ccc3ncccc3c2)n1` [Example D-114, 5-[(2R,3R)-3-(4-cyclopropyl-2-fluorobenzamido)-2-methylpiperidin-1-yl]-3-[(quinolin-6-yl)amino]pyrazine-2-carboxamide], for which the pIC50 is below 5.00 on EGFR, below 5.00 at JAK3, 6.00 to 7.00 against SRC and 7.00 to 8.00 at BTK-WT.
Take `C[C@@H]1[C@H](NC(=O)c2ccc(C3CC3)cc2F)CCCN1c1cnc(C(N)=O)c(Nc2ccc(C3(C)CCN(C4CC4)CC3)cc2)n1` [Example D-138, 5-[(2R,3R)-3-(4-cyclopropyl-2-fluorobenzamido)-2-methylpiperidin-1-yl]-3-{[4-(1-cyclopropyl-4-methylpiperidin-4-yl)phenyl]amino}pyrazine-2-carboxamide]: the pIC50 at EGFR is 6.00 to 7.00; at JAK3, 7.00 to 8.00; on SRC it was 6.00 to 7.00; at BTK-WT, at least 8.00.
In the case of `C[C@@H]1[C@H](NC(=O)c2ccc(C3CC3)cc2)CCCN1c1cnc(C(N)=O)c(Nc2ccc(N3CCN(C)CC3)c(F)c2)n1` [Example D-146, 5-[(2R,3R)-3-(4-cyclopropylbenzamido)-2-methylpiperidin-1-yl]-3-{[3-fluoro-4-(4-methylpiperazin-1-yl)phenyl]amino}pyrazine-2-carboxamide], the pIC50 on EGFR is 6.00 to 7.00; at JAK3 it was 5.00 to 6.00; on SRC, 7.00 to 8.00; at BTK-WT, at least 8.00.
In the same order, the values of `Cc1ccc(-c2cnc([C@H]3CCCN(c4cnc(C(N)=O)c(Nc5cc(C)ns5)n4)C3)[nH]2)cc1` [Example D-136, 3-[(3-methyl-1,2-thiazol-5-yl)amino]-5-[(3S)-3-[5-(4-methylphenyl)-1H-imidazol-2-yl]piperidin-1-yl]pyrazine-2-carboxamide] are 6.00 to 7.00, 5.00 to 6.00, 6.00 to 7.00 and 7.00 to 8.00.
In the same order, the values of `C[C@@H]1[C@H](NC(=O)c2ccc(C3CC3)cc2)CCCN1c1cnc(C(N)=O)c(Nc2ccc(N3CCC(C(C)(C)O)CC3)cc2)n1` [Example D-100, 5-[(2R,3R)-3-(4-cyclopropylbenzamido)-2-methylpiperidin-1-yl]-3-({4-[4-(2-hydroxypropan-2-yl)piperidin-1-yl]phenyl}amino)pyrazine-2-carboxamide] are 5.00 to 6.00, 5.00 to 6.00, 7.00 to 8.00 and at least 8.00.
In the same order, the values of `C[C@@H]1[C@H](NC(=O)N(C)C)CCCN1c1cnc(C(N)=O)c(Nc2ccc(C(=O)N3CCN(C)CC3)cc2)n1` [Example D-110, 5-[(2R,3R)-3-[(dimethylcarbamoyl)amino]-2-methylpiperidin-1-yl]-3-{[4-(4-methylpiperazine-1-carbonyl)phenyl]amino}pyrazine-2-carboxamide] are 5.00 to 6.00, 5.00 to 6.00, 6.00 to 7.00 and at least 8.00.
Regarding `Cc1nsc(Nc2nc(N3CCC[C@@H](NC(=O)N(C)C)[C@H]3C)cnc2C(N)=O)c1C` [Example D-119, 3-[(dimethyl-1,2-thiazol-5-yl)amino]-5-[(2R,3R)-3-[(dimethylcarbamoyl)amino]-2-methylpiperidin-1-yl]pyrazine-2-carboxamide], the negative-log IC50 (pIC50) was 6.00 to 7.00 at EGFR, below 5.00 at JAK3, 5.00 to 6.00 against SRC and 6.00 to 7.00 on BTK-WT.
Regarding `C[C@@H]1[C@H](NC(=O)c2ccc(C3CC3)cc2)CCCN1c1cnc(C(N)=O)c(Nc2ccc(C3(C)CCN(C4CCCC4)CC3)cc2)n1` [Example D-112, 3-{[4-(1-cyclopentyl-4-methylpiperidin-4-yl)phenyl]amino}-5-[(2R,3R)-3-(4-cyclopropylbenzamido)-2-methylpiperidin-1-yl]pyrazine-2-carboxamide], the pIC50 against EGFR was 6.00 to 7.00; at JAK3, 6.00 to 7.00; against SRC it was at least 8.00; at BTK-WT, at least 8.00.
On to `C[C@@H]1[C@H](NC(=O)c2ccc(C3CC3)cc2)CCCN1c1cnc(C(N)=O)c(Nc2ccc(N3CCN(C)CC3)cc2F)n1` [Example D-103, 5-[(2R,3R)-3-(4-cyclopropylbenzamido)-2-methylpiperidin-1-yl]-3-{[2-fluoro-4-(4-methylpiperazin-1-yl)phenyl]amino}pyrazine-2-carboxamide], for which the negative-log IC50 (pIC50) against EGFR is 6.00 to 7.00; on JAK3 it was below 5.00; at SRC, 5.00 to 6.00; on BTK-WT it was at least 8.00.
